Laboratory results taken from patent publication US20250152584A1, “NLRP3 INFLAMMASOME INHIBITOR AND USES THEREOF” (TransThera Sciences (Nanjing), Inc., priority 2022, published 2025).

Legend:
[1] = Pharmacokinetic study in C57BL/6J mice; type: in vivo; details: mouse, plasma, C57BL/6J female mice; for Tmax: median, read-out: Tmax po (peak time of plasma concentration); for Cmax: read-out: Cmax po (peak concentration); for clearance: read-out: Cl—obs iv (clearance rate) (converted); for Vd: read-out: Vss iv (volume of distribution); for bioavailability: iv 5 mg/kg / po 10 mg/kg, read-out: F % (absolute bioavailability)
Method: Experimental Example 2: Pharmacokinetic Study of Compounds in C57BL/6J Mice
Compound 100, Compound 54, Compound 174, Compound 179, and Compound 253 were prepared into solutions with a mixed solvent formulated from 5% dimethyl sulfoxide, 20% (30% solutol) and 75% normal saline, respectively; the solution of each compound was administered to C57BL/6J female mice by gavage at a dose of 10 mg/kg; and the time points for blood collection were: 15 min, 30 min, 1 h, 2 h, 4 h, 6 h, 8 h and 24 h. The solution of the compound was administered to C57BL/6J female mice by intravenous bolus at a dose of 5 mg/kg, and the time points for blood collection were as follows: 5 min, 15 min, 30 min, 1 h, 2 h, 4 h, 6 h, 8 h, and 24 h.
Compound 1 was prepared into a solution with a mixed solvent formulated from 5% DME, 20% (30% solutol) and 75% normal saline; the solution of this compound was administered to C57BL/6J female mice by gavage at a dose of 10 mg/kg, and the time points for blood collection were: 15 min, 30 min, 1 h, 2 h, 4 h, 6 h, 8 h, and 24 h. The solution of the compound was administered to C57BL/6J female mice by intravenous bolus at a dose of 5 mg/kg, and the time points for blood collection were as follows: 5 min, 15 min, 30 min, 1 h, 2 h, 4 h, 6 h, 8 h, and 24 h.
Compound 195 was prepared into a solution with a mixed solvent formulated from 5% dimethyl sulfoxide, 20% PEG400 and 75% normal saline; the solution of this compound was administered to C57BL/6J female mice by gavage at a dose of 10 mg/kg; and the time points for blood collection were 15 min, 30 min, 1 h, 2 h, 4 h, 6 h, 8 h, and 24 b. The solution of the compound was administered to C57BL/6J female mice by intravenous bolus at a dose of 5 mg/kg, and the time points for blood collection were as follows: 5 min, 15 min, 30 min, 1 h, 2 b, 4 h, 6 h, 8 h, and 24 h.
(§1) Approximately 100 μL of blood was collected through the retroorbital venous plexus, and was then placed in an anticoagulant tube containing EDTA-K2. Blood samples were centrifuged at 12,000 rpm for 10 min at 4° C. to obtain plasma samples, and plasma was prepared within 30 min after blood collection. The plasma was stored in a −80° C. freezer before testing.
• 1. The samples were taken from the −80° C. freezer, thawed naturally at room temperature, and then vortexed for 5 min • 2. 10 μL of a plasma sample was precisely pipetted from different individuals into a 1.5 mL centrifuge tube. • 3. 300 μL of an internal standard working solution (the acetonitrile solution of tolbutamide) at a concentration of […] was added and mixed well. • 4. After vortexing for 5 min, the mixture was centrifuged at 12,000 rpm for 5 min. • 5. 50 μL of the supernatant was accurately pipetted into a 96-well plate preloaded with water at 150 μL/well. • 6. Vortexing was performed for 5 min for sufficient mixing, and LC-MS/MS analysis was then conducted.
(§2) The results of the concentrations of the compounds under test were output using Analyst 1.6.3 of AB. Parameters such as mean, standard deviation, coefficient of variation was calculated by Microsoft Excel (parameters directly output by Analyst 1.6.3 needed no calculation), and PK parameters were calculated by WinNonlin Phenoix 8.2 software NCA (Tmax as the median).

[2] = Pharmacokinetic study in SD male rats; type: in vivo; details: rat, plasma; for clearance: read-out: Cl—obs iv (clearance rate) (converted); for Vd: read-out: Vss iv (volume of distribution); for bioavailability: iv 1.0 mg/kg / po 5.0 mg/kg, read-out: F % (absolute bioavailability); for Tmax: median, read-out: Tmax po (peak time of plasma concentration); for Cmax: read-out: Cmax po (peak concentration)
Method: Experimental Example 3: Pharmacokinetic Study of Compounds in SD Male Rats
Compound 54, Compound 55, Compound 174, Compound 173, and Compound 264 were prepared into solutions with a mixed solvent formulated from 5% dimethyl sulfoxide, 20% (30% solutol) and 75% normal saline, respectively; the solution of each compound was administered to SD male rats by gavage at a dose of 5.0 mg/kg; and the time points for blood collection were: 15 min, 30 min, 1 h, 2 h, 4 h, 6 h, 8 h, 10 h and 24 h. The solution of the compound was administered to male SD rats by intravenous bolus at a dose of 1.0 mg/kg, and the time points for blood collection were as follows: 5 min, 15 min, 30 min, 1 h, 2 h, 4 h, 6 h, 8 h, 10 h, and 24 h.
as §1, with “On the day before administration, the jugular vein of each animal was cannulated; and after administration, about 300” for “Approximately 100”, “jugular vein,” for “retroorbital venous plexus,”, “and” for “and was”
• 1. The samples were taken from the −80° C. freezer, thawed naturally at room temperature, and then vortexed for 5 min. • 2. 30 μL of a plasma sample was precisely pipetted into a 1.5 mL centrifuge tube. • 3. 750 μL of an internal standard working solution (the acetonitrile solution of tolbutamide) at a concentration of […] was added and mixed well. • 4. After vortexing for 5 min, the mixture was centrifuged at 12,000 rpm for 5 min. • 5. 50 μL of the supernatant was accurately pipetted into a 96-well plate preloaded with water at 150 μL/well. • 6. Vortexing was performed for 5 min for sufficient mixing, and LC-MS/MS analysis was then conducted.
as §2

[3] = po, gavage 10 mg/kg, read-out: AUClast po (area under the drug-time curve for 0-24 h)
[4] = po, gavage 10 mg/kg, read-out: tz1/2 po (terminal elimination half-life) (converted)
[5] = intravenous bolus 5 mg/kg, read-out: AUClast iv (area under the drug-time curve for 0-24 h)
[6] = intravenous bolus 5 mg/kg, read-out: tz1/2 iv (terminal elimination half-life) (converted)
[7] = intravenous bolus 1.0 mg/kg, read-out: AUClast iv (area under the drug-time curve for 0-24 h)
[8] = intravenous bolus 1.0 mg/kg, read-out: tz1/2 iv (terminal elimination half-life) (converted)
[9] = po, gavage 5.0 mg/kg, read-out: AUClast po (area under the drug-time curve for 0-24 h)
[10] = po, gavage 5.0 mg/kg, read-out: tz1/2 po (terminal elimination half-life) (converted)

Row | Tmax ([1]; po, gavage 10 mg/kg) [h] | AUC(0-t) [1, 3] [ng·h/mL] | Cmax ([1]; po, gavage 10 mg/kg) [ng/mL] | half-life [1, 4] [h] | AUC(0-t) [1, 5] [ng·h/mL] | clearance ([1]; intravenous bolus 5 mg/kg) [mL/min/kg] | Vd ([1]; intravenous bolus 5 mg/kg) [L/kg] | half-life [1, 6] [h] | bioavailability [1] [%] | AUC(0-t) [2, 7] [ng·h/mL] | clearance ([2]; intravenous bolus 1.0 mg/kg) [mL/min/kg] | Vd ([2]; intravenous bolus 1.0 mg/kg) [L/kg] | half-life [2, 8] [h] | bioavailability [2] [%] | Tmax ([2]; po, gavage 5.0 mg/kg) [h] | AUC(0-t) [2, 9] [ng·h/mL] | Cmax ([2]; po, gavage 5.0 mg/kg) [ng/mL] | half-life [2, 10] [h] | SMILES
1 | 0.25 | 1890 | 428 | 3 | 1820 | 44 | 5.22 | 3.85 | 49.9 | – | – | – | – | – | – | – | – | – | C#Cc1ccc(-c2nnc(N[C@@H]3CCCN(C)C3)c3c2CCCC3)c(O)c1 [Compound 1, (R)-5-ethynyl-2-(4-((1-methylpiperidin-3-yl)amino)-5,6,7,8-tetrahydrophthalazin-1-yl)phenol]
2 | – | – | – | – | – | – | – | – | – | 5130 | 3.17 | 1.12 | 5.24 | 163 | 2 | 38500 | 3050 | 7.18 | C#Cc1ccc(-c2nnc(N[C@H]3C[C@@](C)(O)C3)cc2C)c(O)c1 [Compound 55, 5-ethynyl-2-(6-(((cis)-3-hydroxyl-3-methylcyclobutyl)amino)-4-methylpyridazin-3-yl)phenol]
3 | 2 | 10100 | 1530 | 2.76 | 6360 | 13.1 | 3.16 | 3.04 | 79.4 | – | – | – | – | – | – | – | – | – | C#Cc1ccc(-c2nnc(N[C@@H]3CCCN(C)C3)c3ccccc23)c(O)c1 [Compound 100, (R)-5-ethynyl-2-(4-((1-methylpiperidin-3-yl)amino)phthalazin-1-yl)phenol]
4 | – | – | – | – | – | – | – | – | – | 1100 | 14.3 | 6.92 | 6.13 | 85.6 | 4 | 4690 | 395 | 5.72 | C#Cc1ccc(-c2nnc(N[C@@H]3CCCN(C)C3)cc2C2CC2)c(O)c1 [Compound 173, (R)-2-(4-cyclopropyl-6-((1-methylpiperidin-3-yl)amino)pyridazin-3-yl)-5-ethynylphenol]
5 | 0.5 | 3860 | 1120 | 2.19 | 2470 | 32.8 | 5.14 | 2.01 | 79.2 | – | – | – | – | – | – | – | – | – | C#Cc1ccc(-c2nnc(N[C@@H]3CCCN(C)C3)nc2C2CC2)c(O)c1 [Compound 179, (R)-2-(5-cyclopropyl-3-((1-methylpiperidin-3-yl)amino)-1,2,4-triazin-6-yl)-5-ethynylphenol]
6 | 0.5 | 6900 | 2320 | 3.49 | 3200 | 25.5 | 2.76 | 1.5 | 106 | – | – | – | – | – | – | – | – | – | C#Cc1ccc(-c2nnc(N[C@@H]3CCCN(CCO)C3)cc2C)c(O)c1 [Compound 253, (R)-5-ethynyl-2-(6-((1-(2-hydroxyethyl)piperidin-3-yl)amino)-4-methylpyridazin-3-yl)phenol]
7 | – | – | – | – | – | – | – | – | – | 811 | 17.5 | 12.5 | 8.89 | 72.8 | 4 | 3120 | 230 | 7.26 | CC#Cc1ccc(-c2nnc(N[C@@H]3CCCN(C)C3)cc2C2CC2)c(O)c1 [Compound 264, (R)-2-(4-cyclopropyl-6-((1-methylpiperidin-3-yl)amino)pyridazin-3-yl)-5-(propyl-1-alkyn-1-yl)phenol]
